The test system of the assay is blood platelets (thrombocytes). Nature of the assay: Inhibition of ADP-induced blood platelet aggregation in platelet-rich plasma (aggregometer measurement, Born). The format is cell-based, healthy testees. The following applies: for IC50: read-out: IC₅₀.
[1] abbreviates: PRP from citrate stabilized venous blood, 37°C, test substance incubated three minutes, ADP 2 to 4 µM as pro-aggregating substance, linear regression.

Data on 12 molecules can be found in patent publication EP0654028B1, “3- AND 5-SUBSTITUTED 1,2,3,4-OXATRIAZOLE-5-IMINE COMPOUNDS, A PROCESS FOR THE PREPARATION THEREOF, A PHARMACEUTICAL PREPARATION CONTAINING SAID COMPOUNDS AND THE USE OF SAID COMPOUNDS FOR THE PREPARATION OF MEDICAMENTS” (A/S GEA Farmaceutisk Fabrik, priority 1992, dated 1994).

Read-outs that look alike come from different tables or passages of the source.

As for `[NH-]c1c[n+](N2CCOCC2)no1` [SIN-1, reference compound], the IC50 under setting [1] amounted to 3900 nM. For `COC(=O)C(C)NC(=O)[N-]c1n[n+](-c2cccc(Cl)c2C)no1` (stereo not shown) [Example 10, 3-(3-chloro-2-methylpheny1)-1,2,3,4-oxatriazole-5-(N-2-carbamoylpropionic acid methyl ester)imine], the IC50 under setting [1] came out at 2310 nM. On the same count and under the same terms, in the case of `CCOC(=O)c1ccc(NC(=O)[N-]c2n[n+](-c3cccc(Cl)c3C)no2)cc1` [Example 5, 3-(3-chloro-2-methylphenyl)-1,2,3,4-oxatriazole-5-(N-4-carbethoxyphenylcarbamoyl)imine] it was 2980 nM. In the case of `O=[N+]([O-])OCC(CO[N+](=O)[O-])O[N+](=O)[O-]` [GTN, nitroglycerine, reference compound], the “inhibition of blood platelet aggregation (result in words)” value was “inactive” and the IC50 stood at 100000 nM. Regarding `COc1ccc(S(=O)(=O)NC(=O)[N-]c2n[n+](-c3cccc(Cl)c3C)no2)cc1` [Example 6, 3-(3-chloro-2-methylphenyl)-1,2,3,4-oxatriazole-5-(N-4-methoxy-phenylsulphonylcarbamoyl)imine], the IC50 stood at 670 nM. For the molecule `CCOC(=O)NC(=O)[N-]c1n[n+](-c2cccc(Cl)c2C)no1` [Example 7, 3-(3-chloro-2-methylphenyl)-1,2,3,4-oxatriazole-5-(N-carbethoxy-carbamoyl)imine], the IC50 under setting [1] is 160 nM. For the molecule `Cc1c(Cl)cccc1-[n+]1noc([N-]S(=O)(=O)C[C@]23CCC(CC2=O)C3(C)C)n1` [Example 4, 3-(3-chloro-2-methylphenyl)-1,2,3,4-oxatriazole-5-(N-(1S)-(+)-10-camphorylsulphamoyl)imine], the IC50 under setting [1] stood at 80 nM. Take `CC(=O)Nc1ccc(S(=O)(=O)[N-]c2n[n+](-c3cccc(Cl)c3C)no2)cc1` [Example 3, 3-(3-chloro-2-methylphenyl)-1,2,3,4-oxatriazole-5-(N-4-acetylaminophenylsulphamoyl)imine]: the IC50 under setting [1] is 1010 nM. As for `CCOC(=O)CNC(=O)[N-]c1n[n+](-c2cccc(Cl)c2C)no1` [Example 8, 3-(3-chloro-2-methylphenyl)-1,2,3,4-oxatriazole-5-(N-carbethoxymethylcarbamoyl)imine], under setting [1], the IC50 amounted to 7600 nM. In the case of `CC(=O)Nc1nc(C)c(S(=O)(=O)[N-]c2n[n+](-c3cccc(Cl)c3C)no2)s1` [Example 2, 3-(3-chloro-2-methylphenyl)-1,2,3,4-oxatriazole-5-(N-2-acetamido-4-methyl-5-thiazolesulphamoyl)imine], the IC50 under setting [1] was determined as 370 nM. As to `CCOC(=O)C(Cc1ccccc1)NC(=O)[N-]c1n[n+](-c2cccc(Cl)c2C)no1` (stereo not shown) [Example 9, 3-(3-chloro-2-methylphenyl)-1,2,3,4-oxatriazole-5(N-2-carbamoyl-3-phenylpropionic acid ethyl ester)imine], the IC50 under setting [1] is 7900 nM.

For `Cc1c(Cl)cccc1-[n+]1noc([N-]C(=O)NS(=O)(=O)c2ccccc2)n1` [Example 1, 3-(3-chloro-2-methylphenyl)-1,2,3,4-oxatriazole-5-(N-phenylsulphonylcarbamoyl) imine], the IC50 under setting [1] came to 490 nM.
